{
  "source": "patent US20060211071A1",
  "about": "“Device for aggregating, imaging and analyzing thrombi and a method of use” (Millennium Pharmaceuticals, Inc., priority 2004, published 2006)",
  "key": {"preformed thrombi": {"tested_on": "preformed thrombi", "assay": "Stability / reversal of preformed thrombi, blood perfused over collagen surface under arterial shear rates", "assay_type": "cell-based, human", "procedure": "Images are recorded at a frequency of 1 Hz.\nSuch assays can be used to detect antithrombotic activity of drugs that will target known effectors of thrombus stability reported in animal models of thrombosis (CD40L, Gas6, SLAM, SAP, Ephrin)."}, "[1]": {"tested_on": "thrombi on type III collagen-coated capillaries", "assay": "End-point perfusion chamber assay: effect of anticoagulants on antithrombotic activity of a P2Y12 antagonist", "assay_type": "cell-based, human", "details": "4 minutes at 1000/sec", "procedure": "Several anticoagulants have been studied for their effects on the antithrombotic activity of a proprietary direct P2Y12 antagonist in the perfusion chamber assay. Whole blood was perfused over type III collagen-coated capillaries for 4 minutes at 1000/sec. At the end of the experiment, thrombotic deposits were rinsed, fixed and stained with toluidine blue for measurement of thrombus size. […] FIG. 10B represents the mean grey level (MGL) of the thrombi present in the area of observation located at 8 mm from the proximal part of the capillary. Corresponding thrombus volume was determined using the graph presented on FIG. 10C. Nonanticoagulated or Factor Xa anticoagulated human blood was perfused through type III collagen-coated capillary chambers (Vitrocom, glass rectangular capillaries 0.2 by 2 mm section) at […] for 4 minutes. After staining of the thrombotic deposits with toluidine blue for 45 seconds, an En Face picture located 8 mm downstream of the proximal part of the capillary was taken. Measurement of the gray level of each thrombus or platelets located in a window 400 μm long×250 μm wide was performed, and results are expressed as mean ±SEM using the Simple PCI software (Compix Inc Imaging System). Measurement of the mean thrombus volume (μm^3/μm^2) was performed at the same location on cross sections of the thrombotic deposits after epon embedding as described by Andre et al. (2003) Circulation 108, 2697-2703. Mean thrombus volume was expressed by use of Simple PCI software and plotted against the corresponding mean grey level. By using data from human in vitro (by titrating with the GPIIb/IIIa antagonist eptifibatide) experiments, a thrombotic profile (FIG. 10C) that was then used for a rapid measurement of the thrombus volume in subsequent experiments Was established"}, "[2]": {"tested_on": "thrombotic process triggered by type III collagen", "details": "1000/sec", "description": "The methodology and device described herein allows the monitoring in real time of the deposition of fluorescently labeled platelets into a transparent perfusion chamber (FIG. 11). The thrombosis profiler consists of a custom built epifluorescence microscope to monitor thrombus formation and a syringe pump to establish the desired flow and wall shear rate in the capillary perfusion chamber. A thermostatic sample compartment maintains the blood sample at a temperature of 37° C. Platelets are labeled by adding an aliquot of Rhodamine 6G (final concentration 1.25 μg/ml) to whole blood. […] Excitation and emission light are filtered with a set of fluorescence filters (31002, Chroma Technologies, Rockingham, Vt.). […] Images are recorded at a frequency of 1 Hz. […]\nA software/algorithm has been developed in order to obtain a more representative read out of the thrombus formation over time. […] Since the use of antithrombotic drugs can increase platelet adhesion, thrombus size was represented as the measurement of the fluorescence intensity divided by total area (FIG. 12). […] Once the threshold is determined, pixels with values lower than the threshold are classified as background and pixels with values greater than the threshold are marked as foreground. […]"}, "platelets": {"tested_on": "platelets", "assay": "Whole blood treated with GPIIb/IIIa antagonist perfused over collagen surface: monolayer of adhering platelets", "assay_type": "cell-based", "details": "therapeutic dose 2-3 uM", "source_text": "P-selectin is responsible for the recruitment of leukocytes on activated/inflamed vessel wall and at sites of platelet deposition. It is known that leukocyte recruitment under these conditions will contribute to atherosclerotic plaque progression. Therefore monitoring the number of leukocyte rolling on adhering platelets could help define people at risk to develop future atherothrombotic events (number of leukocyte recruited as a predictor of future clinical events). Whole blood treated with a GPIIb/IIIa antagonist (e.g. Integrilin at the therapeutic dose 2-3 uM) and perfused over a collagen surface generate a monolayer of adhering platelets. […] Two to three minutes after the start of the perfusion at arterial shear rates of about ˜600/sec, leukocytes stained with rhodamine 6G are being recruited and roll over the adhering platelets. Antithrombotic agents (or agents targeting the P-selectin/PSGL-1 pathway) that will reduce the amount of leukocyte rolling on adhering platelets will therefore potentially reduce the risks of atherothrombotic events."}, "thrombus size": {"tested_on": "thrombus size", "assay": "Sequential study of thrombotic profile of 20 healthy volunteers on clopidogrel, aspirin and their combination", "assay_type": "in vivo, human", "details": "clopidogrel 75 mg/day, aspirin 325 mg/day"}, "thrombus destabilization": {"tested_on": "thrombus destabilization", "details": "two 300 mg loading doses of plavix and daily aspirin"}, "[3]": {"tested_on": "thrombotic process on collagen+tissue factor coated matrix", "assay": "Non-anticoagulated blood perfused over fibrillar collagen plus tissue factor matrix", "assay_type": "cell-based", "details": "therapeutic dose; arterial shear rates", "source_text": "In this method, the thrombotic process can be evaluated with non-anticoagulated samples of blood. Non-anticoagulated samples of blood perfused over a thrombogenic matrix made of fibrillar collagen plus tissue factor generate thrombotic process under both venous and arterial shear rates that is sensitive to the action of different anticoagulants. In FIG. 22, the thrombotic profile, is inhibited by the therapeutic dose of enoxaparin and a factor Xa inhibitor indicating this system can be used to detect the activity of anticoagulants under arterial shear rates. Similarly, this method can be used to detect both platelet and fibrin deposition under venous shear rate conditions using for example fluorescently labeled antibodies directed against fibrin."}},
  "note": "Where a SMILES comes first, the peptide text is derived from it. Bridges are numbered along the chain shown (N, C = ends). [ ]: non-standard residue; d: D form. hArg = N=C(N)NCCCC[C@H](N)C(=O)O; Mpa = O=C(O)CCS",
  "data": [
    {"compound": "CSc1nc(N)c2ncn([C@@H]3O[C@H](COP(=O)(O)O)[C@@H](O)[C@H]3O)c2n1", "note": "[2MeSAMP]", "values": [
      {"measurement": "mechanism of effect on thrombosis (thrombus stability)", "setting": "preformed thrombi", "result": "affect thrombosis via a mechanism targeting the thrombus stability"},
      {"measurement": "destabilization / reversal of preformed thrombi", "setting": "preformed thrombi; 100 uM", "result": "induces the destabilization of preformed thrombi"},
      {"measurement": "extent of the reversal phenomenon in presence of aspirin", "setting": "preformed thrombi; 2MeSAMP at 100 uM, aspirin present", "result": "increased in presence of aspirin"}
    ]},
    {"compound": "O=C(O)CC(O)(CC(=O)O)C(=O)O", "note": "[Citrate]", "values": [
      {"measurement": "effect of the anticoagulant on the antithrombotic activity of a P2Y12 antagonist", "setting": "[1]", "result": "artificially increased the antithrombotic effects of P2Y12 antagonist"}
    ]},
    {"compound": "CCCCCNC(=O)c1coc([C@H]2[C@@H](Cc3ccccc3CCC(=O)O)[C@@H]3CC[C@H]2O3)n1", "note": "[Ifetroban]", "values": [
      {"measurement": "mechanism of effect on thrombosis (thrombus stability)", "setting": "preformed thrombi", "result": "affect thrombosis via a mechanism targeting the thrombus stability"},
      {"measurement": "stability of preformed thrombi", "setting": "preformed thrombi; 300 nM and 1 uM", "result": "significantly altered their stability"}
    ]},
    {"compound": "N=C(N)NCCCC[C@@H]1NC(=O)CCSSC[C@@H](C(N)=O)NC(=O)[C@@H]2CCCN2C(=O)[C@H](Cc2c[nH]c3ccccc23)NC(=O)[C@H](CC(=O)O)NC(=O)CNC1=O", "note": "[Integrilin] ([Mpa][hArg]GDWPC-NH2; disulfide 1-7)", "values": [
      {"measurement": "concentration reaching maximum level of inhibition (therapeutic dose)", "setting": "[2]; Factor Xa-anticoagulated blood", "result": 2, "unit": "µM"},
      {"measurement": "inhibition of the thrombotic process", "setting": "[2]; increasing concentrations spiked into Factor Xa-anticoagulated blood", "result": "dose-dependently inhibited the thrombotic process"},
      {"measurement": "platelet activation", "setting": "platelets", "result": "platelet activation is not affected"},
      {"measurement": "thrombus formation", "setting": "platelets", "result": "thrombus formation is abrogated"}
    ]},
    {"compound": "CNc1ncnc2c1ncn2[C@H]1C[C@H](OP(=O)(O)O)[C@@H](COP(=O)(O)O)O1", "note": "[MRS2179]", "values": [
      {"measurement": "destabilization / reversal of preformed thrombi", "setting": "preformed thrombi; 100 uM", "result": "did not induced thrombus reversal"},
      {"measurement": "slope of thrombus growth", "setting": "preformed thrombi; 100 uM, added to preformed thrombi", "result": "reduced the slope of thrombus growth"}
    ]},
    {"compound": "NC(N)=NCCC[C@H](NC(=O)[C@@H]1CCCN1C(=O)[C@H](N)Cc1ccccc1)C(=O)CCl", "note": "[PPACK]", "values": [
      {"measurement": "effect of the anticoagulant on the antithrombotic activity of a P2Y12 antagonist", "setting": "[1]", "result": "artificially increased the antithrombotic effects of P2Y12 antagonist"}
    ]},
    {"compound": "CC(=O)Oc1ccccc1C(=O)O", "note": "[aspirin]", "values": [
      {"measurement": "healthy individuals that did not respond to monotherapy", "setting": "thrombus size", "result": "5 out of 20"},
      {"measurement": "mechanism of effect on thrombosis (thrombus stability)", "setting": "preformed thrombi", "result": "affect thrombosis via a mechanism targeting the thrombus stability"}
    ]},
    {"compound": "COC(=O)[C@H](c1ccccc1Cl)N1CCc2sccc2C1", "note": "[clopidogrel]", "values": [
      {"measurement": "healthy individuals that did not respond to monotherapy", "setting": "thrombus size", "result": "4 out of 20"},
      {"measurement": "mechanism of effect on thrombosis (thrombus stability)", "setting": "preformed thrombi", "result": "affect thrombosis via a mechanism targeting the thrombus stability"},
      {"measurement": "antithrombotic protection in type II diabetic patient", "setting": "thrombus destabilization", "result": "lack of protection"}
    ]},
    {"compound": "enoxaparin", "values": [
      {"measurement": "thrombotic profile", "setting": "[3]", "result": "inhibited"}
    ]},
    {"compound": "hirudin", "values": [
      {"measurement": "effect of the anticoagulant on the antithrombotic activity of a P2Y12 antagonist", "setting": "[1]", "result": "least impact on the antithrombotic activity of P2Y12 antagonist"}
    ]}
  ]
}
